Source: ChEMBL document CHEMBL1150862, “Synthetic derivatives of abietic acid with radical scavenging activity” (J Nat Prod, 2001)
Active and inactive are the calls of the source. The rule behind the calls is not given here.

System: Radical scavenging activity
Assay: Antioxidant activity assessed as DPPH radical scavenging activity by spectrophotometric assay
Type: functional

Compound	Activity
CC(C)c1c(Nc2ccccc2)cc2c(c1N)C[C@@H]1[C@](C)(CCC[C@@]1(C)C(=O)O)C2	Active
COc1ccccc1Nc1cc2c(c(N)c1C(C)C)C[C@@H]1[C@](C)(CCC[C@@]1(C)C(=O)O)C2	Active
CC(C)c1c(Nc2ccccc2)cc2c(c1Nc1ccccc1)C[C@@H]1[C@](C)(CCC[C@@]1(C)C(=O)O)C2	Active
COc1ccccc1Nc1cc2c(cc1C(C)C)C[C@@H]1[C@](C)(CCC[C@@]1(C)C(=O)O)C2	Active
COc1ccc(Nc2cc3c(cc2C(C)C)C[C@@H]2[C@](C)(CCC[C@@]2(C)C(=O)O)C3)cc1	Active
COc1ccc(Nc2cc3c(c(Nc4ccc(OC)cc4)c2C(C)C)C[C@@H]2[C@](C)(CCC[C@@]2(C)C(=O)O)C3)cc1	Active
CC(C)c1c(Nc2ccccc2)cc2c(c1[N+](=O)[O-])C[C@@H]1[C@](C)(CCC[C@@]1(C)C(=O)O)C2	Active
CC(C)c1cc2c(cc1Nc1ccccc1)C[C@@]1(C)CCC[C@@](C)(C(=O)O)[C@@H]1C2	Active
COc1ccc(Nc2c(C(C)C)ccc3c2C[C@@H]2[C@](C)(CCC[C@@]2(C)C(=O)O)C3)cc1	Active
CC(C)c1ccc2c(c1Nc1ccccc1)C[C@@H]1[C@](C)(CCC[C@@]1(C)C(=O)O)C2	Active
COc1ccccc1Nc1cc2c(c([N+](=O)[O-])c1C(C)C)C[C@@H]1[C@](C)(CCC[C@@]1(C)C(=O)O)C2	Active
COc1ccc(Nc2cc3c(c(N)c2C(C)C)C[C@@H]2[C@](C)(CCC[C@@]2(C)C(=O)O)C3)cc1	Active
COc1ccc(Nc2cc3c(c([N+](=O)[O-])c2C(C)C)C[C@@H]2[C@](C)(CCC[C@@]2(C)C(=O)O)C3)cc1	Active
Cc1cc(C(C)(C)C)c(O)c(C(C)(C)C)c1	Active
COc1ccccc1Nc1c(C(C)C)ccc2c1C[C@@H]1[C@](C)(CCC[C@@]1(C)C(=O)O)C2	Active
COc1ccccc1Nc1cc2c(c(Nc3ccccc3OC)c1C(C)C)C[C@@H]1[C@](C)(CCC[C@@]1(C)C(=O)O)C2	Active
